# Test results taken from ChEMBL document CHEMBL5344425, “Discovery of 5-(Pyrimidin-2-ylamino)-1H-indole-2-carboxamide Derivatives as Nur77 Modulators with Selective and Potent Activity Against Triple-Negative Breast Cancer” (J Med Chem, 2023).
# Calls of active or inactive are those of the source. The calls are words filed in the database; no cut-off is given here.
# Columns and labels:
# [1] = system: HCC1806; experiment: Antiproliferative activity against human HCC1806 cells assessed as inhibition of cell growth measured after 24 hrs by MTT assay; assay type: functional, cell-based; details: HCC1806, 24 h
# [2] = system: BT-549; experiment: Antiproliferative activity against human BT-549 cells assessed as inhibition of cell growth measured after 24 hrs by MTT assay; assay type: functional, cell-based; details: BT-549, 24 h
# [3] = system: SW-620; experiment: Antiproliferative activity against human SW620 cells assessed as inhibition of cell growth measured after 24 hrs by MTT assay; assay type: functional, cell-based; details: SW-620, 24 h
# [4] = system: HepG2; experiment: Antiproliferative activity against human HepG2 cells assessed as inhibition of cell growth measured after 24 hrs by MTT assay; assay type: functional, cell-based; details: HepG2, 24 h
# [5] = system: HeLa; experiment: Antiproliferative activity against human HeLa cells transfected with Nur77 siRNA assessed as inhibition of cell growth measured after 24 hrs by MTT assay; assay type: functional, cell-based
# [6] = molecular target: T1, Retinoic acid receptor RXR-alpha (Homo sapiens) (UniProt P19793); experiment: Antagonist activity at RXRalpha (unknown origin) transfected in HEK293T cells cotransfected with pG5-Luc assessed as inhibition of receptor transcriptional activity at 2 uM measured after 12 hrs by luciferase reporter gene assay; assay type: cell-based
# T1 sequence (whole entry): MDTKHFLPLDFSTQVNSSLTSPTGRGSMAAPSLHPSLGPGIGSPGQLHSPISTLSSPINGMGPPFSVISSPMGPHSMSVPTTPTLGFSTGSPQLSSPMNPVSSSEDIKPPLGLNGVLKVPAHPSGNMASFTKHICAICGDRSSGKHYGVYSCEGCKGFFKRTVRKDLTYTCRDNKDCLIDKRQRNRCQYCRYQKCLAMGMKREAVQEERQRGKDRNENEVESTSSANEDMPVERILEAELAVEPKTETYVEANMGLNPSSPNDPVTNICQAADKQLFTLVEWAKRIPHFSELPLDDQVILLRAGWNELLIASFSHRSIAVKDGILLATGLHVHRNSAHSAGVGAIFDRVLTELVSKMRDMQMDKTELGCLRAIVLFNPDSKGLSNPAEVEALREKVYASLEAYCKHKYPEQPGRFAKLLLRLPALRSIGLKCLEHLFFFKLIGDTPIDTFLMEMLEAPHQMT
# [7] = molecular target: T2, Peroxisome proliferator-activated receptor gamma (Homo sapiens) (UniProt P37231); experiment: Antagonist activity at PPARgamma ligand binding domain (unknown origin) transfected in HEK293T cells cotransfected with pG5-Luc assessed as inhibition of receptor transcriptional activity at 2 uM measured after 12 hrs by luciferase reporter gene assay; assay type: cell-based
# T2 sequence (whole entry): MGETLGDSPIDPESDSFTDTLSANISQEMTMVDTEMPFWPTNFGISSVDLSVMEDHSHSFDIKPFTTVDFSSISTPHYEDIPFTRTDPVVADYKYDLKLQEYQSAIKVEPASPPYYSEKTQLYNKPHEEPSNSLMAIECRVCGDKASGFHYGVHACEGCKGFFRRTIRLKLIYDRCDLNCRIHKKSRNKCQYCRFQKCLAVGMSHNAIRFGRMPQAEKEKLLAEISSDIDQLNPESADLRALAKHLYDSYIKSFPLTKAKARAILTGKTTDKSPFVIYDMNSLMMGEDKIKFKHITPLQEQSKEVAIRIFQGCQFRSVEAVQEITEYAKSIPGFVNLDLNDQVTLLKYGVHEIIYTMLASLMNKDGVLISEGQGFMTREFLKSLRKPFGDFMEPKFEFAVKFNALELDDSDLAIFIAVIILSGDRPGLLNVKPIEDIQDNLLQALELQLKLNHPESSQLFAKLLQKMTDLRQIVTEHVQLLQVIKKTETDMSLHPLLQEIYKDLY
# [8] = system: Nuclear receptor subfamily 4immunitygroup A member 1 (Homo sapiens), P22736 [UNDEFINED MUTATION]; experiment: Induction of degradation of Myc-tagged Nur77 R184A mutant (unknown origin) transfected in human MDA-MB-231 cells at 2 to 5 uM measured after 6 hrs by western blot analysis; assay type: cell-based; details: dose 2-5 µM
# [9] = system: MDA-MB-231; experiment: Induction of apoptosis in human MDA-MB-231 cells assessed as proportion of early apoptotic cells at 0.63 uM measured after 5 hrs by AnnexinV-FITC/PI staining based flow cytometry (reference value: 3.35%); assay type: functional
# [10] = system: MDA-MB-231; experiment: Induction of apoptosis in human MDA-MB-231 cells assessed as proportion of late apoptotic cells at 0.63 uM measured after 5 hrs by AnnexinV-FITC/PI staining based flow cytometry (reference value: 2.55%); assay type: functional
# [11] = system: MDA-MB-231; experiment: Induction of apoptosis in human MDA-MB-231 cells assessed as proportion of early apoptotic cells at 2.5 uM measured after 5 hrs by AnnexinV-FITC/PI staining based flow cytometry (reference value: 3.35%); assay type: functional
# [12] = system: MDA-MB-231; experiment: Induction of apoptosis in human MDA-MB-231 cells assessed as proportion of early apoptotic cells at 5 uM measured after 5 hrs by AnnexinV-FITC/PI staining based flow cytometry (reference value: 3.35%); assay type: functional
# [13] = system: MDA-MB-231; experiment: Induction of apoptosis in human MDA-MB-231 cells transfected with Myc-Nur77 assessed as PARP cleavage at 1 to 2 uM measured after 6 hrs by western blot analysis; assay type: functional, cell-based; details: dose 1-2 µM
# [14] = system: MDA-MB-231; experiment: Induction of apoptosis in human MDA-MB-231 cells transfected with ctr siRNA assessed as early apoptotic cells at 1 uM measured after 6 hrs by AnnexinV-FITC/PI staining based flow cytometry (reference value: 1.88%); assay type: functional
# [15] = system: MDA-MB-231; experiment: Induction of apoptosis in human MDA-MB-231 cells transfected with ctr siRNA assessed as early apoptotic cells at 2 uM measured after 6 hrs by AnnexinV-FITC/PI staining based flow cytometry (reference value: 1.88%); assay type: functional
# [16] = system: MDA-MB-231; experiment: Induction of apoptosis in human MDA-MB-231 cells transfected with Nur77 siRNA assessed as early apoptotic cells at 1 uM measured after 6 hrs by AnnexinV-FITC/PI staining based flow cytometry (reference value: 1.88%); assay type: functional
# [17] = system: MDA-MB-231; experiment: Induction of apoptosis in human MDA-MB-231 cells transfected with ctr siRNA assessed as loss of mitochondrial membrane potential at 2 uM measured after 6 hrs by JC-1 staining based flow cytometry (reference value: 13.93%); assay type: functional
# [18] = system: MDA-MB-231; experiment: Induction of apoptosis in human MDA-MB-231 cells assessed as PARP cleavage at 2.5 uM pretreated with proteasome and calpain inhibitor, MG132 for 4 hrs followed by compound addition and measured after 6 hrs by western blot analysis; assay type: functional, cell-based
# [19] = system: MDA-MB-231; experiment: Induction of apoptosis in human MDA-MB-231 cells assessed as PARP cleavage at 2.5 uM pretreated with mTOR inhibitor, rapamycin for 4 hrs followed by compound addition and measured after 6 hrs by western blot analysis; assay type: functional, cell-based
# [20] = molecular target: Nuclear receptor subfamily 4immunitygroup A member 1 (Homo sapiens, UniProt P22736); experiment: Modulation of Nur77 in human MDA-MB-231 cells assessed as increase in TP53 phosphorylation at Ser392 residue at 0.31 to 5 uM measured after 6 hrs by western blot analysis; assay type: cell-based; details: dose 0.31-5 µM
# [21] = Selectivity index, ratio of IC50 for cytotoxicity against human MCF-10A cells to IC50 for antiproliferative activity against human MCF7 cells; assay type: toxicity, cell-based; details: MCF-10A cells versus MCF7 cells, read-out: Ratio IC50
# Chain of Nuclear receptor subfamily 4immunitygroup A member 1 (P22736 whole entry): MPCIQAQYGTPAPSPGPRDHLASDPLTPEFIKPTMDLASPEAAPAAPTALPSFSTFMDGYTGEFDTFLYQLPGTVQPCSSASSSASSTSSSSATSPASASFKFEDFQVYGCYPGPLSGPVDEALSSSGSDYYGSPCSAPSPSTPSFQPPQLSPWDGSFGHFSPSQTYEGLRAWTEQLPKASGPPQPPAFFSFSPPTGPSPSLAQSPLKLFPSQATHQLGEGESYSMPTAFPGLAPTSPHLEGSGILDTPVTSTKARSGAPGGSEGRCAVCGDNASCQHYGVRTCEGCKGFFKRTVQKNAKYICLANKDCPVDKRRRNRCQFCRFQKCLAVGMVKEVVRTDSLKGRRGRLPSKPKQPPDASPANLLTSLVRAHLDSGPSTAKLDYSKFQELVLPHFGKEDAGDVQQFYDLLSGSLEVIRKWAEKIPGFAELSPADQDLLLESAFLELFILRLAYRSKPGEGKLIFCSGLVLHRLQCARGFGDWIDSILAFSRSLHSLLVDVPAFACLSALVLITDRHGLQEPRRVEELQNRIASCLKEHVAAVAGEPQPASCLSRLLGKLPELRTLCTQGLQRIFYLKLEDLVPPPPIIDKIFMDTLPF
# Chain of Nuclear receptor subfamily 4immunitygroup A member 1 (Homo sapiens), P22736 [UNDEFINED MUTATION] (P22736 whole entry, looked up, stated change not applied): as the sequence (P22736 whole entry) above
smiles,measurement,setting,value
CCN(CC)CCCNC(=O)c1cc2cc(Nc3nccc(-c4sc(NC)nc4C)n3)ccc2[nH]1,IC50,[1],0.38 µM
same,IC50,[2],2.12 µM
same,IC50,[3],18.1 µM
same,IC50,[4],53.7 µM
same,IC50,[5],9.15 µM
same,inhibition,[6],inactive
same,inhibition,[7],inactive
same,Activity,[8],inactive
same,Activity,[9],20.22%
same,Activity,[10],5.16%
same,Activity,[11],38.14%
same,Activity,[12],52.78%
same,Activity,[13],Active
same,Activity,[14],11.24%
same,Activity,[15],19.23%
same,Activity,[16],2.25%
same,Activity,[17],68.69%
same,Activity,[18],inactive
same,Activity,[19],Active
same,Activity,[20],inactive
same,selectivity ratio,[21],66.7
